Values of other authors as cited in US8802142B2, “Pharmaceutical compositions comprising levetiracetam and process for their preparation” (UCB Pharma, S.A., priority 2005, dated 2014).

Conditions: A. J. Gower et al., Eur. J. Pharmacol., 222, 1992, 193-203

Compound | activity in the treatment of epilepsy
CC[C@@H](C(N)=O)N1CCCC1=O [Levetiracetam, (S)-(−)-α-ethyl-2-oxo-1-pyrrolidine acetamide] | effective
(R)-(−)-α-ethyl-2-oxo-1-pyrrolidine acetamide | completely lacks activity
